The text below walks through data of the C3SDB collision cross section collection.

Structures are written as SMILES.

For the first data set the following is noted: [M+H-H2O]+; instrument: TW; calibrated with polyalanine and drug standards.
With `C[C@@H](N)[C@@H](O)c1ccccc1` [1R,2S-PHENYLPROPYLAMINE], the “collision cross section (N2)” value is given as 127.8 Å². As for `CC1(C)CC2C1CCC1(C)OC1CCC2(C)O` (stereo unspecified) [2-HYDROXY-5 (6)EPOXY-TETRAHYDROCARYOPHYLLENE], the “collision cross section (N2)” value amounted to 150.8 Å². With `CC(C)CCC[C@@H](C)[C@H]1CC[C@H]2[C@@H]3CC[C@H]4C[C@@H](O)CC[C@]4(C)[C@H]3CC[C@]12C` [5alpha-CHOLESTANOL], the “collision cross section (N2)” value is listed as 209 Å².

Take `CCCCCC(=O)Cc1cc(O)cc(O)c1C(=O)Oc1cc(CC(=O)CCCCC)c(C(=O)O)c(OC)c1` [ARTHONIOIC ACID]: the “collision cross section (N2)” value is 231.7 Å².

Still in this data set, the particulars now being: [M+H]+; instrument: TW; calibrated with polyalanine and drug standards.
As to `CC1(C)C2CC(=O)[C@]3(C)C(CC[C@@]4(C)[C@H](c5ccoc5)OC(=O)[C@H]5O[C@]543)[C@@]2(C)C(=O)C[C@H]1O` (stereo partly specified) [1,7-DIDEACETOXY-1,7-DIOXO-3-DEACETYLKHIVORIN], the “collision cross section (N2)” value is given as 199.7 Å².

Turning to `CC(=O)O[C@@H]1CC(=O)[C@@]2(C)C(CC(=O)[C@]3(C)C2CC[C@@]2(C)[C@H](c4ccoc4)OC(=O)C4OC423)C1(C)C` (stereo partly specified) [1,7-DIDEACETOXY-1,7-DIOXOKHIVORIN], the “collision cross section (N2)” value is on record as 210.9 Å². Regarding `COc1ccccc1N1CCNCC1` [1-(2-METHOXYPHENYL)PIPERAZINE], the “collision cross section (N2)” value is 140.5 Å². In the case of `O=C(/C=C/c1ccccc1)c1ccc(O)cc1O` [2',4'-DIHYDROXYCHALCONE], the “collision cross section (N2)” value is on record as 153.5 Å².

With `CCOc1ccc(C(=O)c2ccc(OC)c(O)c2O)cc1` [2,3-DIHYDROXY-4-METHOXY-4'-ETHOXYBENZOPHENONE], the “collision cross section (N2)” value turned out to be 164 Å².

With `COC1=CC(=O)C=C(OC)C1=O` [2,6-DIMETHOXYQUINONE], the “collision cross section (N2)” value is 129.5 Å². Still for that read-out and setting: as for `S=c1[nH]c2ccccc2s1` [2-MERCAPTOBENZOTHIAZOLE], the figure is 126.4 Å²; as for `COc1ccc2oc3ccccc3c(=O)c2c1` [2-METHOXYXANTHONE], 142.4 Å²; as for `Cc1[nH]c2ccccc2c1CN(C)C` [2-METHYL GRAMINE], 140.6 Å².

Turning to `O=c1cccc2ccc(O)c(O)c2c1O` [3,4,6-trihydroxy-5H-benzo[a]cyclohepten-5-one], the “collision cross section (N2)” value is 134.7 Å². For the molecule `COc1ccc2c(=O)c(OC)c(-c3ccccc3)oc2c1` [3,7-DIMETHOXYFLAVONE], the “collision cross section (N2)” value worked out at 160.7 Å². Consider `CC(=O)OC1CC[C@@]2(C)C(CC[C@H]3[C@@H]4CC=C(C(C)=O)[C@@]4(C)C(=O)C[C@@H]32)C1` (stereo partly specified) [3-ACETOXYPREGN-16-EN-12,20-DIONE], for which the “collision cross section (N2)” value was found to be 189.5 Å². On to `NCCc1ccc(O)c(O)c1` [3-HYDROXYTYRAMINE], for which the “collision cross section (N2)” value is on record as 127.7 Å². As to `C=C1C2CC[C@@]3(C)[C@H](c4ccoc4)OC(=O)C[C@]13O[C@H]1CC(O)C(C)(C)C(CC(=O)OC)[C@@]21C` (stereo partly drawn) [3alpha-HYDROXY-3-DEOXYANGOLENSIC ACID METHYL ESTER], the “collision cross section (N2)” value came to 204.6 Å². On the same count and under the same terms, the figure for `O=C(/C=C/c1ccccc1)c1ccc(O)cc1` [4'-HYDROXYCHALCONE] is 150.8 Å²; for `COc1ccc(-c2cc(=O)c3ccccc3o2)cc1` [4'-METHOXYFLAVONE] it is 152.1 Å². Same read-out and setting: the figure for `CCCCOc1cc(CC2CNC(=O)N2)ccc1OC` (stereo unspecified) [4-(3-BUTOXY-4-METHOXYBENZYL)IMIDAZOLIDIN-2-ONE] is 174 Å². As for `Cc1cc(O)cc(=O)o1` [4-HYDROXY-6-METHYLPYRAN-2-ONE], the “collision cross section (N2)” value is 119.8 Å².

On to `O=C(O)CCCN1C(=O)c2cccc3cccc(c23)C1=O` [4-NAPHTHALIMIDOBUTYRIC ACID], for which the “collision cross section (N2)” value came out at 156.5 Å². Consider `Cc1cc(=O)oc2cc(O)cc(O)c12` [5,7-DIHYDROXY-4-METHYLCOUMARIN], for which the “collision cross section (N2)” value was 134.4 Å². Take `O=c1cc(-c2ccc(O)cc2)oc2ccc(O)cc12` [6,4'-DIHYDROXYFLAVONE]: the “collision cross section (N2)” value is listed as 152.7 Å². The same measure, in the same setting: the figure for `NC(=O)c1ccc(N)nc1` [6-AMINONICOTINAMIDE] is 125.7 Å²; for `C=C1C2CC[C@@]3(C)[C@H](c4ccoc4)OC(=O)C[C@]13O[C@H]1CC(=O)C(C)(C)[C@H](C(O)C(=O)OC)[C@@]21C` (stereo partly specified) [6-HYDROXYANGOLENSIC ACID METHYL ESTER] it is 207.6 Å².

In the case of `CN1[C@H]2CC(=O)C[C@@H]1C(O)C2` (stereo partly specified) [6-HYDROXYTROPINONE], the “collision cross section (N2)” value is listed as 131.6 Å². Consider `O=c1cc(-c2ccccc2)oc2cc(O)ccc12` [7-HYDROXYFLAVONE], for which the “collision cross section (N2)” value was 148.9 Å². Still for that read-out and setting: as for `Oc1cccc2cccnc12` [8-HYDROXYQUINOLINE], the figure is 123.6 Å²; as for `CC(=O)O[C@@H]1C[C@@]2(C)C(CC[C@@H]2C(C)=O)C2CCC3=CC(=O)CC[C@]3(C)C21` (stereo partly specified) [11a-ACETOXYPROGESTERONE], 190.6 Å²; as for `CC(=O)[C@H]1CC[C@H]2[C@@H]3CCC4=CC(=O)CC[C@]4(C)[C@H]3C(OC(=O)CCC(=O)O)C[C@]12C` (stereo partly drawn) [11alpha-HYDROXYPROGESTERONE HEMISUCCINATE], 201.8 Å². As to `NC(=O)c1ncn([C@@H]2O[C@H](CO)[C@@H](O)[C@H]2O)c1N` [ACADESINE], the “collision cross section (N2)” value was determined as 153 Å². For `C[C@H]1O[C@H](O[C@H]2[C@H](O)[C@@H](O)[C@@H](O[C@H]3[C@H](O)[C@@H](O)C(O)O[C@@H]3CO)O[C@@H]2CO)[C@H](O)[C@@H](O)[C@@H]1N[C@H]1C=C(CO)[C@@H](O)[C@H](O)[C@H]1O` (stereo partly specified) [ACARBOSE], the “collision cross section (N2)” value came to 231 Å². Consider `CC(=O)Nc1ccc(O)cc1` [ACETAMINOPHEN], for which the “collision cross section (N2)” value is on record as 129.7 Å². Take `CC(=O)Nc1ccccc1` [ACETANILIDE]: the “collision cross section (N2)” value is recorded as 125 Å².

With `CCCCC[C@H](CC(=O)NO)C(=O)N[C@H](C(=O)N1CCC[C@H]1CO)C(C)C` [ACTINONIN], the “collision cross section (N2)” value came out at 194.1 Å². Same read-out and setting: the figure for `CC(C)(C)NCC(O)c1ccc(O)c(CO)c1` (stereo unspecified) [ALBUTEROL] is 158.4 Å²; for `COc1cc2nc(N(C)CCCNC(=O)C3CCCO3)nc(N)c2cc1OC` (stereo unspecified) [ALFLUZOSIN] it is 193.9 Å²; for `COc1cc(OC)c2c(c1)OC(c1ccccc1)CC2=O` (stereo unspecified) [ALPINETIN METHYL ETHER] it is 162.8 Å². Same read-out and setting: as for `C=CCSCC1Nc2cc(Cl)c(S(N)(=O)=O)cc2S(=O)(=O)N1` (stereo unspecified) [ALTHIAZIDE], the figure is 181.5 Å². `C=CC[C@]1(O)CC[C@H]2[C@@H]3CCC4=CC(=O)CCC4=C3C=C[C@@]21C` [ALTRENOGEST]: the “collision cross section (N2)” value is given as 177 Å². As for `Nc1c2ccccc2nc2ccccc12` [AMINACRINE], the “collision cross section (N2)” value came to 136.8 Å². On the same count and under the same terms, the figure for `CC(CC(C(N)=O)(c1ccccc1)c1ccccc1)N(C)C` (stereo unspecified) [AMINOPENTAMIDE] is 169.6 Å²; for `Nc1nc(N)c2nc(CNc3ccc(C(=O)N[C@@H](CCC(=O)O)C(=O)O)cc3)cnc2n1` [AMINOPTERIN] it is 204.4 Å²; for `CCN(CC)Cc1cc(Nc2ccnc3cc(Cl)ccc23)ccc1O` [AMODIAQUINE] it is 191.9 Å². Turning to `Cc1c(N)c(=O)n(-c2ccccc2)n1C` [AMPYRONE], the “collision cross section (N2)” value came out at 142.6 Å². On to `N#C[C@H](O[C@@H]1O[C@H](CO[C@@H]2O[C@H](CO)[C@@H](O)[C@H](O)[C@H]2O)[C@@H](O)[C@H](O)[C@H]1O)c1ccccc1` [AMYGDALIN], for which the “collision cross section (N2)” value was 200.6 Å². On the same count and under the same terms, the figure for `C[C@]12C=CC(=O)C=C1CC[C@@H]1[C@@H]2CC[C@]2(C)C(=O)CC[C@@H]12` [ANDROSTA-1,4-DIEN-3,17-DIONE] is 168.4 Å²; for `COc1ccc(-c2cc(=O)c3c(O)cc(OC)cc3o2)cc1` [APIGENIN DIMETHYL ETHER] it is 163 Å²; for `O=c1cc(-c2ccc(O)cc2)oc2cc(O)cc(O)c12` [APIGENIN] it is 156 Å².

As to `C=CCc1cc(OC)c2c(c1OC)OCO2` [APIOLE], the “collision cross section (N2)” value is given as 146.1 Å². As for `Nc1ccc([As](=O)(O)O)cc1` [ARSANILIC ACID], the “collision cross section (N2)” value stood at 133.2 Å². On to `C[N+]1([O-])C2CCC1CC(OC(=O)C(CO)c1ccccc1)C2` (stereo unspecified) [ATROPINE OXIDE], for which the “collision cross section (N2)” value was determined as 172.4 Å².

Still in this data set, the particulars now being: [M+Na]+; instrument: TW; calibrated with polyalanine and drug standards.
Consider `CCCCCCCCCCCCCCCC(=O)OCC(O)CO` (stereo unspecified) [1-MONOPALMITIN], for which the “collision cross section (N2)” value is reported as 195.9 Å². As for `CC(=O)N[C@@H](CCC(=O)O)C(=O)O` [ACETYLGLUTAMIC ACID], the “collision cross section (N2)” value is on record as 141.7 Å². `CC(=O)N[C@@H](Cc1c[nH]c2ccccc12)C(N)=O` [ACETYLTRYPTOPHANAMIDE]: the “collision cross section (N2)” value was 159.3 Å².

In the case of `CCCCCCCCCCCCCCCCC(C(=O)O)C(O)(CC(=O)O)C(=O)O` (stereo unspecified) [AGARIC ACID], the “collision cross section (N2)” value came to 213.1 Å². Same read-out and setting: the figure for `O=C(O)CCCCCCCC(O)C(O)CCCCCCO` (stereo unspecified) [ALEURETIC ACID] is 175.9 Å²; for `C[C@@H]1CC[C@H]2[C@@H](C)C(=O)O[C@@H]3O[C@@]4(C)CC[C@@H]1[C@]32OO4` [ARTEMISININ] it is 168.1 Å²; for `C/C=C(\C)C(=O)O[C@H]1C[C@@H](OC(C)=O)[C@@]2(C(=O)OC)CO[C@H]3[C@@H](O)[C@@](C)([C@]45O[C@@]4(C)[C@H]4C[C@@H]5O[C@@H]5OC=C[C@@]54O)[C@H]4[C@]1(CO[C@]4(O)C(=O)OC)[C@@H]32` [AZADIRACHTIN] it is 241.4 Å².
